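Where inhibition never reached the appropriate level, the endpoint shown equals the highest concentration tested. Otherwise, values were interpolated linearly from a five-concentration, 48-hour dose response in 96-well plates. GI50 is the concentration that inhibits growth by half. TGI marks complete inhibition of growth.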
How the values were obtained:
Experiment in all cases: DTP human tumour cell line panel, 48 h
A549 NSCLC = tested on: A549 NSCLC
HCC-2998 colon = tested on: HCC-2998 colon
HCT-116 colon = tested on: HCT-116 colon
HCT-15 colon = tested on: HCT-15 colon
HL-60(TB) leukemia = tested on: HL-60(TB) leukemia
IGROV1 ovarian = tested on: IGROV1 ovarian
MALME-3M melanoma = tested on: MALME-3M melanoma
OVCAR-4 ovarian = tested on: OVCAR-4 ovarian
U251 CNS = tested on: U251 CNS
UACC-62 melanoma = tested on: UACC-62 melanoma

SMILES | TGI (A549 NSCLC) [µM] | TGI (HCC-2998 colon) [µM] | TGI (HCT-116 colon) [µM] | TGI (HCT-15 colon) [µM] | TGI (HL-60(TB) leukemia) [µM] | TGI (IGROV1 ovarian) [µM] | TGI (MALME-3M melanoma) [µM] | TGI (OVCAR-4 ovarian) [µM] | TGI (U251 CNS) [µM] | TGI (UACC-62 melanoma) [µM] | GI50 (A549 NSCLC) [µM] | GI50 (HCC-2998 colon) [µM] | GI50 (HCT-116 colon) [µM] | GI50 (HCT-15 colon) [µM] | GI50 (HL-60(TB) leukemia) [µM] | GI50 (IGROV1 ovarian) [µM] | GI50 (MALME-3M melanoma) [µM] | GI50 (OVCAR-4 ovarian) [µM] | GI50 (U251 CNS) [µM] | GI50 (UACC-62 melanoma) [µM]
CNC(=O)NC(CCCCNC(=O)OCc1ccccc1)C(=O)OCc1ccccc1 (centres undefined) | > 100 | > 72.9 | > 100 | > 100 | 65.6 | > 100 | 64.9 | > 100 | > 97.1 | 33.1 | – | – | – | – | – | – | – | – | – | –
CCOC(=O)C(C(=O)OCC)=C1N[C@H](C(=O)OCC)CS1 | > 100 | > 100 | > 100 | > 100 | > 100 | > 100 | > 100 | > 100 | > 100 | > 100 | – | – | – | – | – | – | – | – | – | –
COc1ccc(OC)c(/C=C2\COc3ccc(O)c(O)c3C2=O)c1 | 11.9 | 3.48 | 4.13 | 6.5 | 16.1 | 6.68 | 6.58 | 14.5 | 10.5 | 4.51 | 3.07 | 1.88 | 1.82 | 1.3 | 1.42 | 2.31 | 2.1 | 2.58 | 2.21 | 1.79
CCCCCNC(=O)c1c(O)[nH]c(=S)[nH]c1=O | > 100 | – | > 100 | > 100 | > 100 | > 100 | > 100 | > 100 | > 100 | > 100 | – | – | – | – | – | – | – | – | – | –
O=C(c1nc2ccc(Cl)cc2[nH]c1=O)C(O)c1ccc2c(c1)OCO2 (centres undefined) | > 100 | > 100 | – | – | > 100 | > 100 | > 100 | > 100 | > 100 | > 100 | – | – | – | – | – | – | – | – | – | –
O=C(O)c1c[nH]c2c(OCc3ccccc3)c3ccccc3c(O)c2c1=O | 30.7 | – | 28.2 | 31.9 | 46.1 | > 100 | – | > 100 | 5.19 | 13.3 | 16.4 | – | 15 | 16.6 | 19.7 | 18.7 | – | 43.6 | 2.43 | 3.97
Cc1c(C(=O)/C=C/c2c(Cl)cccc2Cl)c(=O)n(-c2ccccc2)n1C | 74.9 | 65.8 | > 100 | > 100 | – | > 100 | > 100 | – | 2.98 | > 100 | – | – | – | – | – | – | – | – | – | –
Cc1ccc(NC2=C(Cl)C(=O)N(Cc3ccccc3)C2=O)cc1Cl | 18.8 | – | 12.5 | 21.4 | – | – | 9.14 | 26.6 | 15.9 | 16.8 | 5.74 | – | 3.01 | 5.4 | – | – | 0.598 | 10.7 | 3.75 | 3.85
O=C(NCCNc1nccc(-c2c(-c3ccc(F)cc3)nc3sccn23)n1)c1ccccc1 | 96.7 | 40.1 | 35.8 | 39.3 | 77.4 | 24.1 | – | 71.7 | > 100 | 19.9 | 4.11 | 17.4 | 4.37 | 3.81 | 21.3 | 3.48 | – | 15.1 | 8.57 | 4.87
N#C/C(=C1C=C/C(=N\O)C(Cl)=C\1)c1ccccc1 | > 100 | 15.8 | 11.4 | 11 | 5.67 | 23.7 | 29.9 | 51.5 | – | 18.1 | 3.27 | 4.27 | 0.382 | 2.34 | 2.19 | 4.26 | 7.35 | 12.7 | – | 2.8
CCC1CC(C)=CCN1S(=O)(=O)c1ccc(C)cc1 (centres undefined) | > 100 | – | > 100 | 83.7 | 18 | – | 61.7 | > 100 | – | 57.8 | – | – | – | – | – | – | – | – | – | –
CS(=O)(=O)c1ccc(Oc2cc(F)cc(C#N)c2)c2c1[C@H](O)C(F)(F)C2 | > 100 | > 100 | > 100 | > 100 | > 100 | > 100 | > 100 | > 100 | > 100 | – | > 100 | > 100 | > 100 | > 100 | > 100 | > 100 | > 100 | > 100 | > 100 | –
Cc1sc(NC2=NC(=O)/C(=C\c3ccccc3)S2)nc1-c1nc(NC2=NC(=O)/C(=C\c3ccccc3)S2)sc1C | > 39.6 | 39.9 | 24.6 | > 39.6 | > 50 | > 50 | – | – | 22.9 | 24 | 15.5 | 14.2 | 9.31 | 13 | 18 | 23 | – | – | 9.27 | 7.45
C=C(C)[C@@H]1CC[C@]2(C(=O)O)CC[C@]3(C)[C@H](CC[C@@H]4[C@@]5(C)C/C(=C/c6ccc(OC)cc6)C(=O)C(C)(C)[C@@H]5CC[C@]43C)[C@@H]12 | 4.56 | 5.73 | 3.82 | 4.4 | – | 7.3 | 4.29 | 11.2 | 5.68 | 3.13 | 1.3 | 2.1 | 1.62 | 1.79 | – | 2.15 | 1.84 | 2.5 | 1.86 | 1.44
CCOC(=O)C(=O)Nc1c(C)cccc1C(C)C | > 100 | – | > 100 | > 100 | > 100 | > 100 | > 100 | > 100 | > 100 | > 100 | – | – | – | – | – | – | – | – | – | –
COc1ccc(-c2nc(N3CCOCC3)c3sc(CN(C)c4ncc(C(=O)NO)cn4)cc3n2)cn1 | 0.0625 | – | – | – | 1.06 | 0.0439 | 0.0352 | 1.82 | – | – | < 0.01 | – | – | – | < 0.01 | < 0.01 | < 0.01 | 0.0147 | – | –
